Test results reported in ChEMBL document CHEMBL3046816, “Development of a Novel Insecticide, Dinotefuran” (J Pestic Sci, 2005).
Values after ≈ are worked out from the molar mass of the structure shown.

Experiments:
[1] = Solubility in water at pH 7; details: buffer
[2] = Octanol-water partition coefficient, log Pow of the compound
[3] = Toxicity in male po dosed Mus musculus (mouse); details: in vivo
[4] = Toxicity in female po dosed Mus musculus (mouse); details: in vivo
[5] = Acute toxicity in Anas platyrhynchos (mallard duck) dosed with diet; details: in vivo, po

**Q.** With `CN/C(=N/CC1CCOC1)N[N+](=O)[O-]` (stereo not given) [DINOTEFURAN] as the compound, how does the solubility [1] read?
**A.** 40 mg/mL (≈ 198 mM)

**Q.** And the logP [2]?
**A.** -0.549

**Q.** What about the LD50 [3] of the same compound?
**A.** 2450 mg/kg

**Q.** What about the LD50 [4] of the same compound?
**A.** 2280 mg/kg

**Q.** What about the LD50 [5] of the same compound?
**A.** > 1300 mg/kg
